Experimental data taken from patent publication US10272081B2, “SHIP1 modulators and methods related thereto” (Aquinox Pharmaceuticals (Canada) Inc., priority 2013, dated 2019).

Tests used:
[1] = tested on: carrageenan paw edema in mice; assay: Carrageenan paw edema in mice; format: in vivo; conditions: 30 mg/kg orally one hour before carrageenan, 4 hours after carrageenan
Experimental: The activity of representative compounds on carrageenan paw edema in mice was evaluated according to the procedures disclosed by Winter et al., Proc Soc Exp Biol Med 111, 544-547, 1962 which is incorporated herein by reference in its entirety.
To induce edema in the paw, test compounds were administered orally one hour before intraplantar injection of the right hind paw with carrageenan (50 μL of 1% suspension). Hind paw edema, as a measure of inflammation, was recorded using a plethysmometer (Ugo Basile, Italy) 4 hours after λ-carrageenan administration.

[2] = target: T1, His-hSHIP1 enzyme (Homo sapiens, UniProt Q92835); assay: His-hSHIP1 activity, approach 1 (phosphate release from IP4, Biomol Green); format: biochemical; conditions: activation of His-hSHIP1; IP4 50 μM; test compound 0-300 μM; no asterisk in Table 2
T1 construct: His
T1 sequence (Q92835 1-1189): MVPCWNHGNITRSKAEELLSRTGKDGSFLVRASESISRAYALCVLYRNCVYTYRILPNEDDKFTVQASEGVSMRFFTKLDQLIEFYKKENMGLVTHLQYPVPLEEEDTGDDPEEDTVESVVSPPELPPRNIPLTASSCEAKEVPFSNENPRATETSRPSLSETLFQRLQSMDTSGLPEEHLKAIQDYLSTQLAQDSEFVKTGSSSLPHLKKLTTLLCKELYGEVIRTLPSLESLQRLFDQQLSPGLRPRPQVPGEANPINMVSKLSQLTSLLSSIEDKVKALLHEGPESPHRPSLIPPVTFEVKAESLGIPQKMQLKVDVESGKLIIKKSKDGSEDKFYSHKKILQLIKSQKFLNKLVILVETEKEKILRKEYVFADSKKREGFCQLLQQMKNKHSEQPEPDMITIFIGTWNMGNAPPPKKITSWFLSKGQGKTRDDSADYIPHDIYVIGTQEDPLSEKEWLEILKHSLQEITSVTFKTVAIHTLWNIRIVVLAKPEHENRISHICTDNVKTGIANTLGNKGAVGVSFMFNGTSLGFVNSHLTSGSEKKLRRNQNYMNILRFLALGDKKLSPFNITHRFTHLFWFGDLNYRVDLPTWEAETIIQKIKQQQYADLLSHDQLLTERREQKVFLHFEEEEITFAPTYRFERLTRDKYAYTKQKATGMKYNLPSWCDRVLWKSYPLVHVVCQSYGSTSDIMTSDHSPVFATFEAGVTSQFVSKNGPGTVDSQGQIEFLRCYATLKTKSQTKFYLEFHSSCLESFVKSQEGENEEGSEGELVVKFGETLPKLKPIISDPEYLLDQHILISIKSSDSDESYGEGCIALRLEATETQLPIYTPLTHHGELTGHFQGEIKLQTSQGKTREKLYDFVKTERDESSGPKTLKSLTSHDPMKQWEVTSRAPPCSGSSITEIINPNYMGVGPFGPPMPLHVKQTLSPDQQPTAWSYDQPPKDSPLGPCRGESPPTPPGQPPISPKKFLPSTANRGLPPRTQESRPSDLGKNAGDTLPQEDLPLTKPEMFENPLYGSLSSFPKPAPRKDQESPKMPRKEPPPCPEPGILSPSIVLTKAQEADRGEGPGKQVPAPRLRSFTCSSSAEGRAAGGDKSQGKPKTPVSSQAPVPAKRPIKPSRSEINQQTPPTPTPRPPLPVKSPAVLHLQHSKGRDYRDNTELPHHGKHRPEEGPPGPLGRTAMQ
Procedure, shortened: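 Compounds at 0–300 μM final, carried in 10% ethanol, were incubated with 5-20 ng His-hSHIP1 and 50 μM IP4. Buffer was Tris pH 7.5 with 10 mM MgCl2 and Tween 20, 15 min at 37° C. Released phosphate was measured with Biomol Green as absorbance at 650 nm.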

[3] = tested on: Akt phosphorylation in Jurkat (SHIP1−) lymphocytes; assay: Akt phosphorylation in lymphocytes, Jurkat (Western blot); format: cell-based; set-up: key: +: inhibits Akt phosphorylation at 10 μM; −: no effect on Akt phosphorylation at 10 μM; conditions: 10 μM; IGF-1 stimulated Jurkat (PTEN−/SHIP1−) cells
Experimental: Jurkat (PTEN−/SHIP1−) or Molt-4 (PTEN−/SHIP1+) cells are starved in serum free RPMI for overnight. In a 15 mL conical tube, 2-3 million serum starved cells (1 million cells per mL) are treated with various concentrations of test compound (0.1, 1, or 10 μM final in 0.1% DMSO) for 30 min at 37° C. followed by stimulation with 100 ng/mL of IGF-1 for 1 hour at 37° C. After stimulation, cells are washed once with ice-cold DPBS and lysed with Lysis Buffer (20 mM Tris-HCl, pH 7.5, 140 mM NaCl, 1% NP-40, Complete Mini Protease Inhibitor Cocktail, 10 mM NaF, 1 mM Na3VO4, 1 mM β-glycerolphosphate) on ice for 30 min with vortexing every 10 min. Samples are then centrifuged at 13,000 rpm for 20 min, and supernatants are collected as total cell lysate samples. Protein concentration is determined using bicinchonic acid assay, and about 15 μg of total protein from each sample is loaded and separated on a 4-12% Tris-Glycine gel. After SDS-PAGE, proteins are transferred from the gel to a nitrocellulose membrane. The membrane is blocked in 5% BSA in PBS containing 0.1% Tween-20 (PBS-T) for 1 hour at room temperature before probing with primary antibodies for overnight at 4° C. The following antibodies are used: mouse anti-SHIP1 (1:500 dilution; Santa Cruz, Calif., USA), rabbit anti-phospho-Akt(Ser473) (1:1000 dilution; Cell Signaling Technologies, MA, USA), rabbit anti-Akt (1:1000; Cell Signaling Technologies, MA, USA), and rabbit anti-actin (1:2000; Cell Signaling Technologies, MA, USA). The membrane is then incubated with goat anti-rabbit or anti-mouse secondary antibodies (1:3000) for 1 hour at room temperature. Target proteins on the membrane are detected with ECL solution and exposed on a film.

[4] = tested on: passive cutaneous anaphylaxis in mice; assay: Passive cutaneous anaphylaxis in mice; format: in vivo; conditions: oral gavage, doses less than 20 mg/kg
Experimental: The activity of representative compounds on passive cutaneous anaphylaxis in mice was evaluated according to the procedures disclosed by Ovary, J Immunol 81, 355-357, 1958 and Halpern et al., Br J Pharmacol Chemother 20, 389-398, 1963, both of which are incorporated herein by reference in their entirety.
To induce a passive cutaneous anaphylaxis, mice undergo intradermal ear inoculation on their right ear with 25 ng in 20 μL of anti-DNP-IgE. The left ears are untreated and serve as negative controls. Twenty-four hours after inoculation, all mice are administered test compound by oral gavage (PO). Sixty minutes after oral administration, mice are given a tail vein injection of 2% Evan's Blue (0.2 μm filtered, in 200 μL saline) followed by a second tail IV injection of 100 μg DNP-HSA (in 200 μL). Sixty minutes following the DNP-HAS injection, mice are euthanized using CO2 inhalation. Subsequently, ear biopsies are performed by taking four millimetre punches from both ears, which then undergo Evan's Blue extraction using formamide incubation in 96 well plates. Eighty μL of eluents are transferred to flat-bottom 96-well plates and absorbance read using SpectraMax M5 spectrophotometer (Molecular Devices, Sunnyvale, Calif., USA) at 620 nm. Background readings from all samples are taken at 740 nm and subtracted from the 620 nm readings. Data are reported as OD.

C[C@H]1CC[C@H]2C(C)(C)CCC[C@]2(C)[C@H]1CC(=O)c1cc(O)cc(O)c1 [Compound No. 48, 2-[(1S,2S,4aS,8aR)-2,5,5,8a-tetramethyl-decahydronaphthalen-1-yl]-1-(3,5-dihydroxyphenyl)ethan-1-one]
inhibition of carrageenan-induced paw edema [1]: 21%
Scoring, Approach 1 (% increase relative to background) [2]: +++ (x ≥65)

CC(=O)N[C@@H]1C[C@H]2C(C)(C)CCC[C@]2(C)[C@@H](C(=O)c2cc(O)cc(O)c2)[C@@H]1C [Compound No. 57, N-[(2R,3S,4S,4aS,8aS)-4-[(3,5-dihydroxyphenyl)carbonyl]-3,4a,8,8-tetramethyl-decahydronaphthalen-2-yl]acetamide]
Jurkat (SHIP1 −), Akt phosphorylation [3]: −
% Inhibition of allergen-induced passive cutaneous anaphylaxis [4]: +++ (>50% inhibition)
Scoring, Approach 1 (% increase relative to background) [2]: +++ (x ≥65)
